Assays:
[1] = molecular target: T1, hemoglobin (Homo sapiens, UniProt P69905); test: Whole blood assay: oxygen equilibrium curves (Hemox Analyzer), change in p50; type: cell-based; details: whole blood 20% Hct (1 mM Hb), compound 1 mM, equimolar to hemoglobin, 1 h at 37° C.
T1 construct: from tissue; host or cells: whole blood (red blood cells)
Protocol: Oxygen equilibrium curves (OECs) were collected using a TCS Hemox Analyzer (TCS Scientific Company, New Hope, Pa., USA) to measure changes in the binding affinity of 02 to Hb. Whole blood was incubated for 1 h at 37° C. with the indicated compounds in an equimolar ratio of hemoglobin to compound and diluted into TES (2-[[1,3-dihydroxy-2-(hydroxymethyl)propan-2-yl]amino]ethanesulfonic acid)/saline buffer prior to measurements. For example, for whole blood at 20% hematocrit [Hct], which corresponds to 1 mM Hb, a compound concentration of 1 mM was used (for example, for compounds 1-53), and the incubated sample diluted 50- to 100-fold. The concentration for compound 54 was 1.7 mM and in equimolar ratio to hemoglobin. The diluted samples were then oxygenated with compressed air within the Hemox Analyzer, and the OECs were collected during deoxygenation as previously described (Guarnone et al., Haematologica, 1995, 80, 426-430). p50 (partial pressure of 02 at which Hb is 50% saturated with 02) values were obtained using a non-linear regression analysis. Percentage change in p50 [Δp50(%)] was calculated as follows: Δp50(%)=[(p50 of control)−p50 with compound)/p50 control]×100.

[2] = Pharmacokinetics in rats following 10 mg/kg oral administration; type: in vivo; details: Sprague-Dawley, rat, PO 10 mg/kg
Protocol: The pharmacokinetic (PK) profile of Compound 2 was characterized in Sprague-Dawley rats following oral administration of 10 mg/kg. Blood and plasma samples were serially collected from each animal up to 240 h post-dose and analyzed for their concentrations using LC/MS. The analytical range was 100 to 100,000 ng/ml for both plasma and blood samples. Blood and plasma concentrations of Compound 2 were analyzed by non-compartmental analysis using Phoenix WinNonlin software (version 6-4; Pharsight Inc., Cary, N.C., USA) to obtain pharmacokinetic parameters, including half-life (T½) and area under the curve (AUC). AUClast refers to the area under the curve calculated from t=0 to the last detectable time-point. Blood to plasma concentration ratio was calculated from a ratio of AUClast in blood divided by AUClast in plasma.
Blood pharmacokinetic parameters in rat were determined in individual animals and reported as mean.

[3] = molecular target: T2, Human CO-HbS (Homo sapiens, UniProt P69905); test: Crystallography of CO-liganded HbS with compound; details: CO-HbS 0.8 mM, compound 1 mM
T2 construct: Purified HbS was prepared from blood using a combination of gel filtration and anion exchange chromatography; from tissue; host or cells: blood
Protocol: Purified HbS was prepared from blood using a combination of gel filtration and anion exchange chromatography. Following preparation, the purified HbS solution was concentrated to 1 mM in a volume of 1 mL using a Vivaspin 20 concentrator (GE healthcare) via centrifugation at room temperature in an Eppendorf 5810 R centrifuge. The concentrated HbS solution was then buffer exchanged into potassium phosphate buffer by mixing 1 mL of concentrated HbS solution with 20 mL of 1.8 M potassium phosphate buffer, pH 7.4 and re-concentrating back to 1 mL using a Vivaspin 20. This process was repeated twice and aliquots of the resulting HbS solution were flash frozen using liquid nitrogen and stored at −80° C. To prepare HbS-CO, purified HbS was first saturated with CO for five hours before it was buffer exchanged into 20 mM Hepes buffer, pH 7.4, and concentrated to 3 mM.
Human CO-HbS was crystallized using sitting drop vapor diffusion method. Freshly prepared CO-HbS at 0.8 mM and buffered with 20 mM HEPES pH 7.4 was mixed with compounds (specifically, Compound 1 and Compound 2) at a final concentration of 1 mM. […] The appearance of hemoglobin crystals was monitored visually and microscopically every 48-72 hours after beginning of the experiments. […]

T2 sequence (P69905 2-142 limits assumed): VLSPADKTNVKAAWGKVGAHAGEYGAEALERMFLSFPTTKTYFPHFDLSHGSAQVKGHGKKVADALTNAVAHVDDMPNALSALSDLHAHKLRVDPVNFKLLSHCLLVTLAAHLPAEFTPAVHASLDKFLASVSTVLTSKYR
T1 sequence (P69905 2-142 limits assumed): as above
T1 sequence (P68871 2-147 partner limits assumed): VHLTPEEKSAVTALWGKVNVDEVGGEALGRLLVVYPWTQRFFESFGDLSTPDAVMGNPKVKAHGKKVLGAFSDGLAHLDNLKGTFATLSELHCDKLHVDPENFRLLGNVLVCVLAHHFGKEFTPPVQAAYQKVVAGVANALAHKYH

Compound	Delta-p50 (%) [1]	blood plasma ratio ([2]; blood and plasma, AUClast in blood divided by AUClast in plasma)	AUC(0-t) ([2]; whole blood, blood, 0.5% MC, mean of N=3)	half-life ([2]; whole blood, blood, 0.5% MC, mean of N=3, read-out: T½ (converted))	binding sites on hemoglobin (crystal structure) [3]
O=Cc1ccccc1C(=O)N1CCCC[C@H]1COc1cccc(O)c1C=O [Compound 2, 2-{[(2S)-1-(2-formylbenzoyl)piperidin-2-yl]methoxy}-6-hydroxybenzaldehyde]	78.3%	937	239 µg·h/mL	187 h	two distinct areas of hemoglobin
O=Cc1c(O)cccc1OC[C@@H]1CCCCN1C(=O)c1cccc(O)c1C=O [Compound 1, 2-[(2S)-2-[(2-formyl-3-hydroxyphenoxy)methyl]piperidine-1-carbonyl]-6-hydroxybenzaldehyde]	75.8%	–	–	–	two distinct areas of hemoglobin

— patent US11014884B2 (Global Blood Therapeutics, Inc., priority 2018, dated 2021)
